# Test system: MV-4-11 cells
# Assay: Gene expression microarray analysis (Affymetrix PrimeView) and GSEA
# Assay type: cell-based, human
# Set-up: RFU PODN (11730768_x_at) / Fold change /veh PODN (11730768_x_at) / RFU LINC00158 (11744669_a_at) / Fold change /veh LINC00158 (11744669_a_at) / RFU DUSP10 (11751237_a_at) / Fold change /veh DUSP10 (11751237_a_at) / RFU ID3 (11757404_x_at) / Fold change /veh ID3 (11757404_x_at) / RFU PLEKHG5 (11737974_s_at) / Fold change /veh PLEKHG5 (11737974_s_at) / RFU LRRC4B (11730491_at) / Fold change /veh LRRC4B (11730491_at) / RFU GIMAP4 (11747438_a_at) / Fold change /veh GIMAP4 (11747438_a_at) / RFU KRT8 (11758183_x_at) / Fold change /veh KRT8 (11758183_x_at) / RFU CNN1 (11734310_a_at) / Fold change /veh CNN1 (11734310_a_at) / RFU VPS37D (11726825_at) / Fold change /veh VPS37D (11726825_at) / RFU C10orf10 (11716522_x_at) / Fold change /veh C10orf10 (11716522_x_at) / RFU KIR2DL2 /// KIR2DL4 /// KIR2DL5A /// KIR2DL5B /// KIR2DS1 /// KIR2DS2 /// KIR2DS3 /// KIR2DS4 /// KIR3DL3 /// KIR3DL3 /// KIR3DS1 (11738374_at) / Fold change /veh KIR2DL2 /// KIR2DL4 /// KIR2DL5A /// KIR2DL5B /// KIR2DS1 /// KIR2DS2 /// KIR2DS3 /// KIR2DS4 /// KIR3DL3 /// KIR3DL3 /// KIR3DS1 (11738374_at) / RFU C1QL1 (11718748_at) / Fold change /veh C1QL1 (11718748_at) / RFU TMPRSS4 (11747572_a_at) / Fold change /veh TMPRSS4 (11747572_a_at) / RFU HAMP (11756126_x_at) / Fold change /veh HAMP (11756126_x_at) / RFU RNFT2 (11725882_a_at) / Fold change /veh RNFT2 (11725882_a_at) / RFU NR4A2 (11747474_a_at) / Fold change /veh NR4A2 (11747474_a_at) / RFU ABCC12 (11746883_a_at) / Fold change /veh ABCC12 (11746883_a_at) / RFU TMEM136 (11760407_x_at) / Fold change /veh TMEM136 (11760407_x_at) / RFU CLDN22 /// WWC2 (11732394_at) / Fold change /veh CLDN22 /// WWC2 (11732394_at) / RFU HLA-DPB1 (11760878_x_at) / Fold change /veh HLA-DPB1 (11760878_x_at) / RFU SPINT1 (11716480_a_at) / Fold change /veh SPINT1 (11716480_a_at) / RFU GAP43 (11754022_s_at) / Fold change /veh GAP43 (11754022_s_at) / RFU A4GNT (11735810_at) / Fold change /veh A4GNT (11735810_at) / RFU PRB3 (11715151_x_at) / Fold change /veh PRB3 (11715151_x_at) / RFU TUBB4B (11761932_at) / Fold change /veh TUBB4B (11761932_at) / RFU CAPN14 (11732068_a_at) / Fold change /veh CAPN14 (11732068_a_at) / RFU TMCC2 (11721928_a_at) / Fold change /veh TMCC2 (11721928_a_at) / RFU IRGQ (11745062_a_at) / Fold change /veh IRGQ (11745062_a_at) / RFU FAM174B (11720279_a_at) / Fold change /veh FAM174B (11720279_a_at) / RFU TMPRSS4 (11748680_a_at) / Fold change /veh TMPRSS4 (11748680_a_at) / RFU FAM212B (11763350_a_at) / Fold change /veh FAM212B (11763350_a_at) / RFU PLEKHG5 (11743358_a_at) / Fold change /veh PLEKHG5 (11743358_a_at) / RFU ZSCAN30 (11745921_a_at) / Fold change /veh ZSCAN30 (11745921_a_at) / RFU CMKLR1 (11741424_a_at) / Fold change /veh CMKLR1 (11741424_a_at) / RFU LOC101060620 /// MAPK8IP1 (11723275_at) / Fold change /veh LOC101060620 /// MAPK8IP1 (11723275_at) / RFU SPTSSB (11747773_x_at) / Fold change /veh SPTSSB (11747773_x_at) / RFU PRSS12 (11739890_at) / Fold change /veh PRSS12 (11739890_at) / RFU BIN1 (11741810_x_at) / Fold change /veh BIN1 (11741810_x_at) / RFU WNT11 (11732464_a_at) / Fold change /veh WNT11 (11732464_a_at) / RFU C10orf10 (11716521_a_at) / Fold change /veh C10orf10 (11716521_a_at) / RFU C5orf56 (11738089_at) / Fold change /veh C5orf56 (11738089_at) / RFU CYB561 (11721691_x_at) / Fold change /veh CYB561 (11721691_x_at) / RFU ANKRD19P (11752326_a_at) / Fold change /veh ANKRD19P (11752326_a_at) / RFU OR2T12 /// OR2T33 /// OR2T8 (11738714_s_at) / Fold change /veh OR2T12 /// OR2T33 /// OR2T8 (11738714_s_at) / RFU VCAN (11748164_a_at) / Fold change /veh VCAN (11748164_a_at) / RFU JSRP1 (11732532_at) / Fold change /veh JSRP1 (11732532_at) / RFU KRTAP10-11 (11738290_x_at) / Fold change /veh KRTAP10-11 (11738290_x_at) / RFU MYO3A (11730013_a_at) / Fold change /veh MYO3A (11730013_a_at) / RFU EBF3 (11725865_a_at) / Fold change /veh EBF3 (11725865_a_at) / RFU CAMK2N1 (11719241_x_at) / Fold change /veh CAMK2N1 (11719241_x_at) / RFU C5orf56 (11738088_a_at) / Fold change /veh C5orf56 (11738088_a_at) / RFU OLFML3 (11715873_a_at) / Fold change /veh OLFML3 (11715873_a_at) / RFU LOC100653217 /// NTM (11731650_a_at) / Fold change /veh LOC100653217 /// NTM (11731650_a_at) / RFU MAPK11 (11762145_a_at) / Fold change /veh MAPK11 (11762145_a_at) / RFU FIZ1 (11724087_x_at) / Fold change /veh FIZ1 (11724087_x_at) / RFU OASL (11726364_x_at) / Fold change /veh OASL (11726364_x_at) / RFU SOX15 (11748057_x_at) / Fold change /veh SOX15 (11748057_x_at) / RFU CD79A (11719716_a_at) / Fold change /veh CD79A (11719716_a_at) / RFU HIST1H1D (11736915_at) / Fold change /veh HIST1H1D (11736915_at) / RFU CASKIN2 (11723855_a_at) / Fold change /veh CASKIN2 (11723855_a_at) / RFU LOC730098 (11760151_x_at) / Fold change /veh LOC730098 (11760151_x_at) / RFU OR4N2 (11742367_at) / Fold change /veh OR4N2 (11742367_at) / RFU PRRT2 (11749266_a_at) / Fold change /veh PRRT2 (11749266_a_at) / RFU SNX32 (11753110_a_at) / Fold change /veh SNX32 (11753110_a_at) / RFU CDHR5 (11726645_a_at) / Fold change /veh CDHR5 (11726645_a_at) / RFU RCAN1 (11760418_a_at) / Fold change /veh RCAN1 (11760418_a_at) / RFU FAM167A (11723789_a_at) / Fold change /veh FAM167A (11723789_a_at) / RFU FAM26E (11764081_at) / Fold change /veh FAM26E (11764081_at) / RFU ISYNA1 (11749810_s_at) / Fold change /veh ISYNA1 (11749810_s_at) / RFU ACY1 (11761880_at) / Fold change /veh ACY1 (11761880_at) / RFU 11764098_at / Fold change /veh 11764098_at / RFU SAMD14 (11745864_x_at) / Fold change /veh SAMD14 (11745864_x_at) / RFU NPB (11741838_a_at) / Fold change /veh NPB (11741838_a_at) / RFU TMPRSS6 (11731388_a_at) / Fold change /veh TMPRSS6 (11731388_a_at) / RFU KRTAP10-2 (11738614_at) / Fold change /veh KRTAP10-2 (11738614_at) / RFU ARHGAP8 /// PRR5-ARHGAP8 (11727945_x_at) / Fold change /veh ARHGAP8 /// PRR5-ARHGAP8 (11727945_x_at) / RFU KRTAP5-7 /// NADSYN1 (11734609_at) / Fold change /veh KRTAP5-7 /// NADSYN1 (11734609_at) / RFU RASL12 (11751679_a_at) / Fold change /veh RASL12 (11751679_a_at) / RFU CDKN2B (11736163_a_at) / Fold change /veh CDKN2B (11736163_a_at) / RFU PRF1 (11729649_at) / Fold change /veh PRF1 (11729649_at) / RFU, ZNF638 /// ZNF638-IT1 / Fold change vs veh, ZNF638 /// ZNF638-IT1 / RFU, PANK3 / Fold change vs veh, PANK3 / RFU, SH3YL1 / Fold change vs veh, SH3YL1 / RFU, ZEB2 / Fold change vs veh, ZEB2 / RFU, NRIP1 / Fold change vs veh, NRIP1 / RFU, PTTG1IP / Fold change vs veh, PTTG1IP / RFU, CAPN2 / Fold change vs veh, CAPN2 / RFU, MED14 / Fold change vs veh, MED14 / RFU, SNORA58 / Fold change vs veh, SNORA58 / RFU, C1orf63 / Fold change vs veh, C1orf63 / RFU, LRRFIP1 / Fold change vs veh, LRRFIP1 / RFU, NDUFAF7 / Fold change vs veh, NDUFAF7 / RFU, SLC12A2 / Fold change vs veh, SLC12A2 / RFU, IBTK / Fold change vs veh, IBTK / RFU, ESF1 / Fold change vs veh, ESF1 / Fold change vs veh, TMEM50B / RFU, TAOK1 / Fold change vs veh, TAOK1 / RFU, ACBD3 / Fold change vs veh, ACBD3 / RFU, TMA16 / Fold change vs veh, TMA16 / RFU, RWDD3 / Fold change vs veh, RWDD3 / RFU, BCAT1 / Fold change vs veh, BCAT1 / RFU, EDEM3 / Fold change vs veh, EDEM3 / RFU, TMEM33 / Fold change vs veh, TMEM33 / RFU, WDR75 / Fold change vs veh, WDR75 / RFU, AHCTF1 / Fold change vs veh, AHCTF1 / RFU, TFRC / Fold change vs veh, TFRC / RFU, ZDHHC17 / Fold change vs veh, ZDHHC17 / RFU, NOM1 / Fold change vs veh, NOM1 / RFU, ARL8B / Fold change vs veh, ARL8B / RFU, ZBTB11 / Fold change vs veh, ZBTB11 / RFU, TAMM41 / Fold change vs veh, TAMM41 / RFU, KIAA1704 /// LOC100996395 / Fold change vs veh, KIAA1704 /// LOC100996395 / RFU, ING1 / Fold change vs veh, ING1 / RFU, TRMT61B / Fold change vs veh, TRMT61B / RFU, FUBP3 / Fold change vs veh, FUBP3 / RFU, TP53 / Fold change vs veh, TP53 / RFU, TNKS2 / Fold change vs veh, TNKS2 / RFU, ZFP14 / Fold change vs veh, ZFP14 / RFU, ACTR2 / Fold change vs veh, ACTR2 / RFU, PPP3R1 / Fold change vs veh, PPP3R1 / RFU, PIK3R1 / Fold change vs veh, PIK3R1 / RFU, HNRNPA1 / Fold change vs veh, HNRNPA1 / RFU, RNF170 / Fold change vs veh, RNF170 / RFU, ZNF28 / Fold change vs veh, ZNF28 / RFU, RNGTT / Fold change vs veh, RNGTT / RFU, OGT / Fold change vs veh, OGT / RFU, BRD1 / Fold change vs veh, BRD1 / RFU, MARS / Fold change vs veh, MARS / RFU, ZNF655 / Fold change vs veh, ZNF655 / RFU, FAHD1 / Fold change vs veh, FAHD1 / RFU, BDP1 / Fold change vs veh, BDP1 / RFU, LRRCC1 / Fold change vs veh, LRRCC1 / RFU, ARID1A / Fold change vs veh, ARID1A / RFU, ZNF146 / Fold change vs veh, ZNF146 / RFU, ZNF330 / Fold change vs veh, ZNF330 / RFU, GPN3 / Fold change vs veh, GPN3 / RFU, C9orf123 / Fold change vs veh, C9orf123 / RFU, N4BP2L2 / Fold change vs veh, N4BP2L2 / RFU, ARFIP1 / Fold change vs veh, ARFIP1 / RFU, FAM179B / Fold change vs veh, FAM179B / RFU, BCL10 / Fold change vs veh, BCL10 / RFU, UHRF1BP1L / Fold change vs veh, UHRF1BP1L / RFU, BET1 / Fold change vs veh, BET1 / RFU, CNOT2 / Fold change vs veh, CNOT2 / RFU, ZNF268 / Fold change vs veh, ZNF268 / Fold change vs veh, ZNF507 / RFU, DGCR2 / Fold change vs veh, DGCR2 / RFU, WDSUB1 / Fold change vs veh, WDSUB1 / Fold change vs veh, HSP90B1 /// MIR3652 / RFU, ADSS / Fold change vs veh, ADSS / RFU, GK / Fold change vs veh, GK / RFU, ZNF148 / Fold change vs veh, ZNF148 / RFU, TAF9 / Fold change vs veh, TAF9 / RFU, SLC1A5 / Fold change vs veh, SLC1A5 / RFU, SLMO2 / Fold change vs veh, SLMO2 / RFU, ABCC4 / Fold change vs veh, ABCC4 / RFU, LOC101060439 /// RAP1B / Fold change vs veh, LOC101060439 /// RAP1B / RFU, RFX7 / Fold change vs veh, RFX7 / RFU, GTPBP10 / Fold change vs veh, GTPBP10 / RFU, CNEP1R1 / Fold change vs veh, CNEP1R1 / RFU, BIVM-ERCC5 /// ERCC5 / Fold change vs veh, BIVM-ERCC5 /// ERCC5 / RFU, ILF3 / Fold change vs veh, ILF3 / RFU 11762660_at / Fold change /veh 11762660_at / RFU VCAN (11757783_s_at) / Fold change /veh VCAN (11757783_s_at) / RFU DDX43 (11728927_at) / Fold change /veh DDX43 (11728927_at) / RFU KRT8 (11758188_x_at) / Fold change /veh KRT8 (11758188_x_at) / RFU NKD1 (11759106_at) / Fold change /veh NKD1 (11759106_at) / RFU SRD5A1 (11742802_a_at) / Fold change /veh SRD5A1 (11742802_a_at) / RFU TPSAB1 /// TPSB2 (11721975_s_at) / Fold change /veh TPSAB1 /// TPSB2 (11721975_s_at) / RFU GSTM3 (11746129_a_at) / Fold change /veh GSTM3 (11746129_a_at) / RFU IL23R (11737362_x_at) / Fold change /veh IL23R (11737362_x_at) / RFU TMEM51 (11727254_a_at) / Fold change /veh TMEM51 (11727254_a_at) / RFU PIWIL2 (11732686_x_at) / Fold change /veh PIWIL2 (11732686_x_at) / RFU ORM1 (11744905_x_at) / Fold change /veh ORM1 (11744905_x_at) / RFU CCDC152 (11743942_at) / Fold change /veh CCDC152 (11743942_at) / RFU ECM1 (11717891_a_at) / Fold change /veh ECM1 (11717891_a_at) / RFU IL23R (11748794_a_at) / Fold change /veh IL23R (11748794_a_at) / RFU TNFAIP8L3 (11732012_x_at) / Fold change /veh TNFAIP8L3 (11732012_x_at) / RFU MBOAT4 (11741988_at) / Fold change /veh MBOAT4 (11741988_at) / RFU 11764193_at / Fold change /veh 11764193_at / RFU TMEM53 (11763286_at) / Fold change /veh TMEM53 (11763286_at) / RFU MAGEB2 (11727129_at) / Fold change /veh MAGEB2 (11727129_at) / RFU TMEM200A (11744735_a_at) / Fold change /veh TMEM200A (11744735_a_at) / RFU CCDC152 (11751479_a_at) / Fold change /veh CCDC152 (11751479_a_at) / RFU FAM211A (11726209_a_at) / Fold change /veh FAM211A (11726209_a_at) / RFU RGS16 (11746705_a_at) / Fold change /veh RGS16 (11746705_a_at) / RFU VCAN (11755009_s_at) / Fold change /veh VCAN (11755009_s_at) / RFU RHOB (11743442_s_at) / Fold change /veh RHOB (11743442_s_at) / RFU RGS16 (11720943_a_at) / Fold change /veh RGS16 (11720943_a_at) / RFU RGS16 (11720944_at) / Fold change /veh RGS16 (11720944_at) / RFU, VPS4B / Fold change vs veh, VPS4B / RFU, CREB1 / Fold change vs veh, CREB1 / RFU, DNAJC13 / Fold change vs veh, DNAJC13 / RFU, GNAQ / Fold change vs veh, GNAQ / RFU, CDK5R1 / Fold change vs veh, CDK5R1 / RFU, ZRANB3 / Fold change vs veh, ZRANB3 / RFU, CUL4A / Fold change vs veh, CUL4A / RFU, CCNY / Fold change vs veh, CCNY / RFU, UFL1 / Fold change vs veh, UFL1 / RFU, COG3 / Fold change vs veh, COG3 / RFU, DIAPH2 / Fold change vs veh, DIAPH2 / RFU, SKA2 / Fold change vs veh, SKA2 / RFU, AFF3 / Fold change vs veh, AFF3 / RFU, LMF1 / Fold change vs veh, LMF1 / RFU, IPO11 / Fold change vs veh, IPO11 / RFU, DFFB / Fold change vs veh, DFFB / RFU, FOXP1 / Fold change vs veh, FOXP1 / RFU, CARD8 / Fold change vs veh, CARD8 / RFU, STRN3 / Fold change vs veh, STRN3 / RFU, ADK / Fold change vs veh, ADK / RFU, RASSF2 / Fold change vs veh, RASSF2 / RFU, WIPF1 / Fold change vs veh, WIPF1 / RFU, LARP1B / Fold change vs veh, LARP1B / RFU, RASA1 / Fold change vs veh, RASA1 / RFU, RB1 / Fold change vs veh, RB1 / RFU, PPFIA1 / Fold change vs veh, PPFIA1 / RFU, MAT2A / Fold change vs veh, MAT2A / RFU, CCT5 / Fold change vs veh, CCT5 / RFU, WDR92 / Fold change vs veh, WDR92 / RFU, CUX1 / Fold change vs veh, CUX1 / RFU, TTC7A / Fold change vs veh, TTC7A / RFU, TMEM135 / Fold change vs veh, TMEM135 / RFU, DEPTOR / Fold change vs veh, DEPTOR / RFU, CPM / Fold change vs veh, CPM / RFU, DNAJB6 / Fold change vs veh, DNAJB6 / RFU, CACNA2D3 / Fold change vs veh, CACNA2D3 / RFU, DTX4 / Fold change vs veh, DTX4 / RFU, TFCP2 / Fold change vs veh, TFCP2 / RFU, GMCL1 /// GMCL1P1 / Fold change vs veh, GMCL1 /// GMCL1P1 / RFU, AEBP2 / Fold change vs veh, AEBP2 / RFU, SNHG1 /// SNORD22 /// SNORD25 /// SNORD26 /// SNORD27 /// SNORD28 /// SNORD29 /// SNORD31 / Fold change vs veh, SNHG1 /// SNORD22 /// SNORD25 /// SNORD26 /// SNORD27 /// SNORD28 /// SNORD29 /// SNORD31 / Fold change (Aza/veh), C12orf56 (ProbeSet 11735607_a_at) / Fold change (ACY-1035/veh), C12orf56 (ProbeSet 11735607_a_at) / Fold change (Aza/veh), FGFR1OP (ProbeSet 11751329_s_at) / Fold change (ACY-1035/veh), FGFR1OP (ProbeSet 11751329_s_at) / Fold change (Aza/veh), VPS36 (ProbeSet 11739960_a_at) / Fold change (ACY-1035/veh), VPS36 (ProbeSet 11739960_a_at) / RFU SYPL1 (11715823_x_at) / Fold change /veh SYPL1 (11715823_x_at) / RFU IGFBP7 (11715501_s_at) / Fold change /veh IGFBP7 (11715501_s_at) / RFU REEP3 (11722064_at) / Fold change /veh REEP3 (11722064_at) / RFU IGLL1 (11728026_x_at) / Fold change /veh IGLL1 (11728026_x_at): dose or concentration left out as unconfirmed
# Details: ProbeSet 11720270_a_at; LIST B
smiles,measurement,value
Nc1ncn([C@@H]2O[C@H](CO)[C@@H](O)[C@H]2O)c(=O)n1 [azacitidine],"RFU, IBTK",397.77 RFU

# Source: article PMC5218480 (PLoS ONE, 2017)
